What was measured:
Type in all cases: in vivo
Foxtail [1] = experiment: Postemergent control of plant species
Experimental: (§1) Representative compositions of the present invention were evaluated for the postemergence control of species of plants listed in Table A. In these evaluations, pots of the plant species listed in Table A, grown to a height of about 10 cms, were used. Aqueous spray compositions, containing various amounts of 2-[4-(2-fluoro-4-trifluoromethylphenoxy)-phenoxy]propionic acid methy ester, i.e., 125 ppm, 62.5 ppm, 31.25 ppm, 15.6 ppm, 7.8 ppm and 3.9 ppm, respectively, were applied to separate pots. The spray compositions were made by mixing the active ingredient in acetone to 1/2 the final volume, i.e., twice the final concentration. An equal amount of water was added to the active ingredient/acetone mixture wherein the water contained 0.1 percent by weight of TWEEN® 200 surfactant. The application to the plants was made to the point of run-off and was carried out with conventional spraying equipment. Other pots were sprayed with similar compositions containing no toxicant to serve as controls. Thereafter, the pots were maintained under conditions conducive for plant growth. Two weeks after treatment, the pots were examined for plant growth and evaluated on a scale of 0 to 100 where 0 represents no effect and 100 represents complete kill. The results of the examination of the treated pots are set forth below in Table A.
(§2) In further operations employing the above general procedures and the indicated test compounds the following results were obtained: […]

Crabgrass = experiment: Postemergent activity
Experimental: as §1
(§3) Substantially the same procedures as those described in Example A were repeated except that the active ingredients were 2-[4-(4-chloro-2-fluorophenoxy)phenoxy]propionic acid; methyl ester and its R-enantiomer and 2-(4-(4-bromo-2-fluorophenoxy)phenoxy propionic acid; methyl ester and its R enantiomer. The results are listed below in Table B.
as §2

Wild Oats = experiment: Postemergent activity; details: Avena fatua, post-emergence, 336 h; for pest or weed control at 7.8 ppm / pest or weed control at 15.6 ppm / pest or weed control at 62.5 ppm / pest or weed control at 125 ppm / pest or weed control at 250 ppm: read-out: % Control
Experimental: as §1, §3, §2

Barnyard Grass = experiment: Postemergent activity
Experimental: as §1, §3, §2

Wheat = experiment: Postemergent activity; details: Triticum aestivum, post-emergence, 336 h, read-out: % Control
Experimental: as §1, §3, §2

Foxtail [2] = experiment: Postemergent control of plant species; details: 250 ppm

For `COC(=O)C=C(OC)C(C)Oc1ccc(Oc2ccc(Br)cc2F)cc1` (centres unmarked), which “Percent Control” value (Foxtail [1]; 7.8 ppm) is on record?
The value was 0%.

And the “Percent Control” value (Foxtail [1]; 15.6 ppm)?
The value was 0%.

What about the “Percent Control” value (Foxtail [1]; 31.2 ppm) of the same compound?
The value was 0%.

And the “Percent Control” value (Foxtail [1]; 62.5 ppm)?
The value was 0%.

And the “Percent Control” value (Foxtail [1]; 125 ppm)?
Its value is 0%.

And the “% Control” value (Crabgrass; 7.8 ppm)?
Its value is 0%.

What about the “% Control” value (Crabgrass; 15.6 ppm) of the same compound?
The value was 0%.

What about the “% Control” value (Crabgrass; 31.2 ppm) of the same compound?
The value was 20%.

What about the “% Control” value (Crabgrass; 62.5 ppm) of the same compound?
The value was 95%.

And the “% Control” value (Crabgrass; 125 ppm)?
Its value is 98%.

What about the “% Control” value (Crabgrass; 250 ppm) of the same compound?
The value was 100%.

What about the pest or weed control at 7.8 ppm (Wild Oats) of the same compound?
Its pest or weed control at 7.8 ppm is 0%.

And the pest or weed control at 15.6 ppm (Wild Oats)?
Its pest or weed control at 15.6 ppm is 0%.

And the pest or weed control at 31.2 ppm (Wild Oats)?
The pest or weed control at 31.2 ppm was 0%.

What about the pest or weed control at 62.5 ppm (Wild Oats) of the same compound?
The pest or weed control at 62.5 ppm was 0%.

What about the pest or weed control at 125 ppm (Wild Oats) of the same compound?
The pest or weed control at 125 ppm was 0%.

What about the pest or weed control at 250 ppm (Wild Oats) of the same compound?
Its pest or weed control at 250 ppm is 0%.

What about the “% Control” value (Barnyard Grass; 7.8 ppm) of the same compound?
The value was 0%.

What about the “% Control” value (Barnyard Grass; 15.6 ppm) of the same compound?
Its value is 0%.

And the “% Control” value (Barnyard Grass; 31.2 ppm)?
The value was 0%.

And the “% Control” value (Barnyard Grass; 62.5 ppm)?
The value was 0%.

What about the “% Control” value (Barnyard Grass; 125 ppm) of the same compound?
Its value is 0%.

And the “% Control” value (Barnyard Grass; 250 ppm)?
The value was 0%.

And the plant injury at 7.8 ppm (Wheat)?
The plant injury at 7.8 ppm was 0%.

And the plant injury at 15.6 ppm (Wheat)?
Its plant injury at 15.6 ppm is 0%.

And the plant injury at 31.2 ppm (Wheat)?
Its plant injury at 31.2 ppm is 0%.

What about the plant injury at 62.5 ppm (Wheat) of the same compound?
The plant injury at 62.5 ppm was 0%.

And the plant injury at 125 ppm (Wheat)?
The plant injury at 125 ppm was 0%.

And the plant injury at 250 ppm (Wheat)?
The plant injury at 250 ppm was 0%.

And the “Percent Control” value (Foxtail [2])?
Its value is 100%.

Which results are given for `C=CC(=O)C(C)Oc1ccc(Oc2ccc(Br)cc2F)cc1` (centres unmarked)?
Percent Control (Foxtail [1]; 7.8 ppm): 0%; Percent Control (Foxtail [1]; 15.6 ppm): 0%; Percent Control (Foxtail [1]; 31.2 ppm): 0%; Percent Control (Foxtail [1]; 62.5 ppm): 0%; Percent Control (Foxtail [1]; 125 ppm): 0%; % Control (Crabgrass; 7.8 ppm): 0%; % Control (Crabgrass; 15.6 ppm): 0%; % Control (Crabgrass; 31.2 ppm): 0%; % Control (Crabgrass; 62.5 ppm): 100%; % Control (Crabgrass; 125 ppm): 98%; % Control (Crabgrass; 250 ppm): 98%; pest or weed control at 7.8 ppm (Wild Oats): 0%; pest or weed control at 15.6 ppm (Wild Oats): 0%; pest or weed control at 31.2 ppm (Wild Oats): 0%; pest or weed control at 62.5 ppm (Wild Oats): 0%; pest or weed control at 125 ppm (Wild Oats): 0%; pest or weed control at 250 ppm (Wild Oats): 0%; % Control (Barnyard Grass; 7.8 ppm): 0%; % Control (Barnyard Grass; 15.6 ppm): 0%; % Control (Barnyard Grass; 31.2 ppm): 0%; % Control (Barnyard Grass; 62.5 ppm): 0%; % Control (Barnyard Grass; 125 ppm): 0%; % Control (Barnyard Grass; 250 ppm): 30%; plant injury at 7.8 ppm (Wheat): 0%; plant injury at 15.6 ppm (Wheat): 0%; plant injury at 31.2 ppm (Wheat): 0%; plant injury at 62.5 ppm (Wheat): 0%; plant injury at 125 ppm (Wheat): 0%; plant injury at 250 ppm (Wheat): 0%; Percent Control (Foxtail [2]): 100%

What does the source list for `CC(=O)CC(O)C(C)Oc1ccc(Oc2ccc(Br)cc2F)cc1` (centres unmarked)?
Percent Control (Foxtail [1]; 7.8 ppm): 0%; Percent Control (Foxtail [1]; 15.6 ppm): 0%; Percent Control (Foxtail [1]; 31.2 ppm): 0%; Percent Control (Foxtail [1]; 62.5 ppm): 0%; Percent Control (Foxtail [1]; 125 ppm): 20%; % Control (Crabgrass; 7.8 ppm): 0%; % Control (Crabgrass; 15.6 ppm): 0%; % Control (Crabgrass; 31.2 ppm): 0%; % Control (Crabgrass; 62.5 ppm): 95%; % Control (Crabgrass; 125 ppm): 95%; pest or weed control at 7.8 ppm (Wild Oats): 0%; pest or weed control at 15.6 ppm (Wild Oats): 0%; pest or weed control at 31.2 ppm (Wild Oats): 0%; pest or weed control at 62.5 ppm (Wild Oats): 0%; pest or weed control at 125 ppm (Wild Oats): 0%; pest or weed control at 250 ppm (Wild Oats): 0%; % Control (Barnyard Grass; 7.8 ppm): 0%; % Control (Barnyard Grass; 15.6 ppm): 0%; % Control (Barnyard Grass; 31.2 ppm): 0%; % Control (Barnyard Grass; 62.5 ppm): 0%; % Control (Barnyard Grass; 125 ppm): 0%; % Control (Barnyard Grass; 250 ppm): 0%; plant injury at 7.8 ppm (Wheat): 0%; plant injury at 15.6 ppm (Wheat): 0%; plant injury at 31.2 ppm (Wheat): 0%; plant injury at 62.5 ppm (Wheat): 0%; plant injury at 125 ppm (Wheat): 0%; Percent Control (Foxtail [2]): 25%

`CC(=O)C(C(C)=O)C(=O)C(C)Oc1ccc(Oc2ccc(Br)cc2F)cc1` (centres unmarked) was tested. Which “Percent Control” value (Foxtail [1]; 7.8 ppm) did it give?
Its value is 0%.

And the “Percent Control” value (Foxtail [1]; 15.6 ppm)?
The value was 0%.

What about the “Percent Control” value (Foxtail [1]; 31.2 ppm) of the same compound?
The value was 100%.

What about the “Percent Control” value (Foxtail [1]; 62.5 ppm) of the same compound?
The value was 100%.

What about the “Percent Control” value (Foxtail [1]; 125 ppm) of the same compound?
The value was 100%.

What about the “% Control” value (Crabgrass; 7.8 ppm) of the same compound?
Its value is 0%.

What about the “% Control” value (Crabgrass; 15.6 ppm) of the same compound?
Its value is 70%.

What about the “% Control” value (Crabgrass; 31.2 ppm) of the same compound?
Its value is 100%.

And the “% Control” value (Crabgrass; 62.5 ppm)?
The value was 100%.

What about the “% Control” value (Crabgrass; 125 ppm) of the same compound?
Its value is 100%.

And the “% Control” value (Crabgrass; 250 ppm)?
Its value is 100%.

What about the pest or weed control at 7.8 ppm (Wild Oats) of the same compound?
The pest or weed control at 7.8 ppm was 0%.

And the pest or weed control at 15.6 ppm (Wild Oats)?
The pest or weed control at 15.6 ppm was 0%.

And the pest or weed control at 31.2 ppm (Wild Oats)?
Its pest or weed control at 31.2 ppm is 0%.

What about the pest or weed control at 62.5 ppm (Wild Oats) of the same compound?
The pest or weed control at 62.5 ppm was 0%.

And the pest or weed control at 125 ppm (Wild Oats)?
The pest or weed control at 125 ppm was 0%.

And the pest or weed control at 250 ppm (Wild Oats)?
Its pest or weed control at 250 ppm is 50%.

What about the “% Control” value (Barnyard Grass; 7.8 ppm) of the same compound?
The value was 0%.

What about the “% Control” value (Barnyard Grass; 15.6 ppm) of the same compound?
Its value is 0%.

What about the “% Control” value (Barnyard Grass; 31.2 ppm) of the same compound?
Its value is 0%.

What about the “% Control” value (Barnyard Grass; 62.5 ppm) of the same compound?
Its value is 100%.

What about the “% Control” value (Barnyard Grass; 125 ppm) of the same compound?
The value was 100%.

What about the “% Control” value (Barnyard Grass; 250 ppm) of the same compound?
The value was 100%.

And the plant injury at 7.8 ppm (Wheat)?
The plant injury at 7.8 ppm was 0%.

What about the plant injury at 15.6 ppm (Wheat) of the same compound?
Its plant injury at 15.6 ppm is 0%.

And the plant injury at 31.2 ppm (Wheat)?
The plant injury at 31.2 ppm was 0%.

And the “Percent Control” value (Foxtail [2])?
The value was 100%.

Which “Percent Control” value (Foxtail [1]; 7.8 ppm) does the source give for `CCOC(=O)CC(O)C(C)Oc1ccc(Oc2ccc(Br)cc2F)cc1` (centres unmarked) here?
Its value is 0%.

What about the “Percent Control” value (Foxtail [1]; 15.6 ppm) of the same compound?
The value was 0%.

What about the “Percent Control” value (Foxtail [1]; 31.2 ppm) of the same compound?
The value was 0%.

And the “Percent Control” value (Foxtail [1]; 62.5 ppm)?
The value was 100%.

And the “Percent Control” value (Foxtail [1]; 125 ppm)?
The value was 100%.

And the “% Control” value (Crabgrass; 7.8 ppm)?
The value was 0%.

What about the “% Control” value (Crabgrass; 15.6 ppm) of the same compound?
The value was 20%.

And the “% Control” value (Crabgrass; 31.2 ppm)?
The value was 20%.

What about the “% Control” value (Crabgrass; 62.5 ppm) of the same compound?
The value was 100%.

What about the “% Control” value (Crabgrass; 125 ppm) of the same compound?
The value was 100%.

And the “% Control” value (Crabgrass; 250 ppm)?
Its value is 100%.

What about the pest or weed control at 7.8 ppm (Wild Oats) of the same compound?
The pest or weed control at 7.8 ppm was 0%.

What about the pest or weed control at 15.6 ppm (Wild Oats) of the same compound?
The pest or weed control at 15.6 ppm was 0%.

And the pest or weed control at 31.2 ppm (Wild Oats)?
The pest or weed control at 31.2 ppm was 0%.

What about the pest or weed control at 62.5 ppm (Wild Oats) of the same compound?
The pest or weed control at 62.5 ppm was 0%.

What about the pest or weed control at 125 ppm (Wild Oats) of the same compound?
Its pest or weed control at 125 ppm is 50%.

And the pest or weed control at 250 ppm (Wild Oats)?
The pest or weed control at 250 ppm was 50%.

What about the “% Control” value (Barnyard Grass; 7.8 ppm) of the same compound?
The value was 0%.

And the “% Control” value (Barnyard Grass; 15.6 ppm)?
Its value is 0%.

And the “% Control” value (Barnyard Grass; 31.2 ppm)?
Its value is 80%.

And the “% Control” value (Barnyard Grass; 62.5 ppm)?
Its value is 100%.

And the “% Control” value (Barnyard Grass; 125 ppm)?
The value was 100%.

What about the “% Control” value (Barnyard Grass; 250 ppm) of the same compound?
The value was 100%.

And the plant injury at 7.8 ppm (Wheat)?
The plant injury at 7.8 ppm was 0%.

And the plant injury at 15.6 ppm (Wheat)?
Its plant injury at 15.6 ppm is 0%.

What about the plant injury at 31.2 ppm (Wheat) of the same compound?
The plant injury at 31.2 ppm was 0%.

And the plant injury at 62.5 ppm (Wheat)?
The plant injury at 62.5 ppm was 0%.

And the “Percent Control” value (Foxtail [2])?
The value was 100%.

Source: patent US4725683A, “Fluorophenoxyphenoxypropionates and derivatives thereof” (The Dow Chemical Company, priority 1985, dated 1988)
